Data taken from PubChem BioAssay (NCI).
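Following 48 hours of exposure in 96-well plates, responses at five concentrations were used to interpolate endpoints linearly. GI50 is the concentration that inhibits growth by half. TGI: concentration producing complete growth inhibition.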

Tests used:
Assay in all cases: DTP human tumour cell line panel, 48 h
786-0 renal = system: 786-0 renal
A498 renal = system: A498 renal
A549 NSCLC = system: A549 NSCLC
ACHN renal = system: ACHN renal
BT-549 breast = system: BT-549 breast
CAKI-1 renal = system: CAKI-1 renal
CCRF-CEM leukemia = system: CCRF-CEM leukemia
COLO 205 colon = system: COLO 205 colon
DU-145 prostate = system: DU-145 prostate
EKVX NSCLC = system: EKVX NSCLC
HCC-2998 colon = system: HCC-2998 colon
HCT-116 colon = system: HCT-116 colon
HCT-15 colon = system: HCT-15 colon
HL-60(TB) leukemia = system: HL-60(TB) leukemia
HOP-62 NSCLC = system: HOP-62 NSCLC
HOP-92 NSCLC = system: HOP-92 NSCLC
HS 578T breast = system: HS 578T breast
HT29 colon = system: HT29 colon
IGROV1 ovarian = system: IGROV1 ovarian
K-562 leukemia = system: K-562 leukemia
KM12 colon = system: KM12 colon
LOX IMVI melanoma = system: LOX IMVI melanoma
M14 melanoma = system: M14 melanoma
MALME-3M melanoma = system: MALME-3M melanoma
MCF7 breast = system: MCF7 breast
MDA-MB-231 breast = system: MDA-MB-231 breast
MDA-MB-435 = system: MDA-MB-435
MOLT-4 leukemia = system: MOLT-4 leukemia
NCI-H226 lung = system: NCI-H226 lung
NCI-H460 lung = system: NCI-H460 lung
NCI-H522 lung = system: NCI-H522 lung
NCI/ADR-RES ovarian = system: NCI/ADR-RES ovarian
OVCAR-3 ovarian = system: OVCAR-3 ovarian
OVCAR-4 ovarian = system: OVCAR-4 ovarian
OVCAR-5 ovarian = system: OVCAR-5 ovarian
OVCAR-8 ovarian = system: OVCAR-8 ovarian
PC-3 prostate = system: PC-3 prostate
RPMI-8226 leukemia = system: RPMI-8226 leukemia
RXF 393 renal = system: RXF 393 renal
SF-268 CNS = system: SF-268 CNS
SF-295 CNS = system: SF-295 CNS
SF-539 CNS = system: SF-539 CNS
SK-MEL-2 melanoma = system: SK-MEL-2 melanoma
SK-MEL-28 melanoma = system: SK-MEL-28 melanoma
SK-MEL-5 melanoma = system: SK-MEL-5 melanoma
SK-OV-3 ovarian = system: SK-OV-3 ovarian
SN12C renal = system: SN12C renal
SNB-19 CNS = system: SNB-19 CNS
SNB-75 CNS = system: SNB-75 CNS
SR leukemia = system: SR leukemia
SW-620 colon = system: SW-620 colon
T-47D breast = system: T-47D breast
TK-10 renal = system: TK-10 renal
U251 CNS = system: U251 CNS
UACC-257 melanoma = system: UACC-257 melanoma
UACC-62 melanoma = system: UACC-62 melanoma
UO-31 renal = system: UO-31 renal

CS(=O)(=O)c1nccc(-c2c(-c3ccc(F)c(OCCc4ccc(F)cc4)c3)nc3sccn23)n1
GI50 (786-0 renal): 14.9 µM | TGI (786-0 renal): 30 µM | GI50 (A498 renal): 9.97 µM | TGI (A498 renal): 21.5 µM | GI50 (A549 NSCLC): 16.1 µM | TGI (A549 NSCLC): 30.5 µM | GI50 (ACHN renal): 2.74 µM | TGI (ACHN renal): 7.33 µM | GI50 (BT-549 breast): 14 µM | TGI (BT-549 breast): 27.6 µM | GI50 (CAKI-1 renal): 13.5 µM | TGI (CAKI-1 renal): 26.4 µM | GI50 (CCRF-CEM leukemia): 14.2 µM | TGI (CCRF-CEM leukemia): 33.2 µM | GI50 (COLO 205 colon): 17.1 µM | TGI (COLO 205 colon): 32.5 µM | GI50 (DU-145 prostate): 2.07 µM | TGI (DU-145 prostate): 4.32 µM | GI50 (EKVX NSCLC): 12.7 µM | TGI (EKVX NSCLC): 25.4 µM | GI50 (HCC-2998 colon): 3.48 µM | TGI (HCC-2998 colon): 11.3 µM | GI50 (HCT-116 colon): 12.9 µM | TGI (HCT-116 colon): 25.5 µM | GI50 (HCT-15 colon): 12.5 µM | TGI (HCT-15 colon): 27.8 µM | GI50 (HL-60(TB) leukemia): 3.23 µM | TGI (HL-60(TB) leukemia): 9.31 µM | GI50 (HOP-62 NSCLC): 15.3 µM | TGI (HOP-62 NSCLC): 31.2 µM | GI50 (HOP-92 NSCLC): 4.7 µM | TGI (HOP-92 NSCLC): 18.8 µM | GI50 (HS 578T breast): 12.5 µM | TGI (HS 578T breast): 43.8 µM | GI50 (HT29 colon): 15.2 µM | TGI (HT29 colon): 30.6 µM | GI50 (IGROV1 ovarian): 5.9 µM | TGI (IGROV1 ovarian): 24.6 µM | GI50 (K-562 leukemia): 15 µM | TGI (K-562 leukemia): 53.8 µM | GI50 (KM12 colon): 13 µM | TGI (KM12 colon): 28.5 µM | GI50 (LOX IMVI melanoma): 13 µM | TGI (LOX IMVI melanoma): 27.6 µM | GI50 (M14 melanoma): 16.6 µM | TGI (M14 melanoma): 30.9 µM | GI50 (MALME-3M melanoma): 17.2 µM | TGI (MALME-3M melanoma): 31.7 µM | GI50 (MCF7 breast): 1.85 µM | TGI (MCF7 breast): 4.31 µM | GI50 (MDA-MB-231 breast): 17 µM | TGI (MDA-MB-231 breast): 37.8 µM | GI50 (MDA-MB-435): 15.9 µM | TGI (MDA-MB-435): 29.3 µM | GI50 (MOLT-4 leukemia): 14.3 µM | TGI (MOLT-4 leukemia): 34.5 µM | GI50 (NCI-H226 lung): 14.5 µM | TGI (NCI-H226 lung): 35 µM | GI50 (NCI-H460 lung): 4.25 µM | TGI (NCI-H460 lung): 16.3 µM | GI50 (NCI-H522 lung): 11.7 µM | TGI (NCI-H522 lung): 28.1 µM | GI50 (NCI/ADR-RES ovarian): 17.4 µM | TGI (NCI/ADR-RES ovarian): 39 µM | GI50 (OVCAR-3 ovarian): 7.11 µM | TGI (OVCAR-3 ovarian): 20.8 µM | GI50 (OVCAR-4 ovarian): 14.9 µM | TGI (OVCAR-4 ovarian): 30.4 µM | GI50 (OVCAR-5 ovarian): 15.5 µM | TGI (OVCAR-5 ovarian): 30.4 µM | GI50 (OVCAR-8 ovarian): 15.5 µM | TGI (OVCAR-8 ovarian): 33.2 µM | GI50 (PC-3 prostate): 10.9 µM | TGI (PC-3 prostate): 27.2 µM | GI50 (RPMI-8226 leukemia): 4.34 µM | TGI (RPMI-8226 leukemia): 28.1 µM | GI50 (RXF 393 renal): 15 µM | TGI (RXF 393 renal): 29.2 µM | GI50 (SF-268 CNS): 16.4 µM | TGI (SF-268 CNS): 36.9 µM | GI50 (SF-295 CNS): 17 µM | TGI (SF-295 CNS): 31.6 µM | GI50 (SF-539 CNS): 15.5 µM | TGI (SF-539 CNS): 30 µM | GI50 (SK-MEL-2 melanoma): 15.7 µM | TGI (SK-MEL-2 melanoma): 30.7 µM | GI50 (SK-MEL-28 melanoma): 11.9 µM | TGI (SK-MEL-28 melanoma): 24.5 µM | GI50 (SK-MEL-5 melanoma): 16.5 µM | TGI (SK-MEL-5 melanoma): 30.8 µM | GI50 (SK-OV-3 ovarian): 13.5 µM | TGI (SK-OV-3 ovarian): 26.5 µM | GI50 (SN12C renal): 13.8 µM | TGI (SN12C renal): 30.6 µM | GI50 (SNB-19 CNS): 15.2 µM | TGI (SNB-19 CNS): 33.9 µM | GI50 (SNB-75 CNS): 11.4 µM | TGI (SNB-75 CNS): 23.6 µM | GI50 (SR leukemia): 12.3 µM | TGI (SR leukemia): 36.9 µM | GI50 (SW-620 colon): 15.2 µM | TGI (SW-620 colon): 30.6 µM | GI50 (T-47D breast): 2.7 µM | TGI (T-47D breast): 7.57 µM | GI50 (TK-10 renal): 15.1 µM | TGI (TK-10 renal): 28.3 µM | GI50 (U251 CNS): 15.9 µM | TGI (U251 CNS): 29.7 µM | GI50 (UACC-257 melanoma): 12.3 µM | TGI (UACC-257 melanoma): 25.4 µM | GI50 (UACC-62 melanoma): 15.4 µM | TGI (UACC-62 melanoma): 35.5 µM | GI50 (UO-31 renal): 10.2 µM | TGI (UO-31 renal): 21.8 µM
